{"source": "paper PMC6884535", "about": "“Detection of colonic neoplasia in vivo using near-infrared-labeled peptide targeting cMet” (Scientific Reports, 2019)", "molecules": {"B1": {"name": "QQT*-Cy5.5 (peptide)", "peptide": "QQTNWSLGGGSK-{Cy5.5}", "modifications": "not fully specified", "notes": "heptapeptide selected by phage display (Ph.D.-7 library) against the extra-cellular domain of cMet; linker between the peptide and Cy5.5; also called QQTNWSL; cMet peptide; source: synthetic peptide (Fmoc solid-phase synthesis, purified with HPLC)"}}, "key": {"[1]": {"biological_target": "T1, cMet (Homo sapiens, UniProt P08581)", "T1 construct": "endogenous in cells; host or cells: HT29 human colorectal cancer cells (ATCC)", "T1 sequence (P08581 25-1390)": "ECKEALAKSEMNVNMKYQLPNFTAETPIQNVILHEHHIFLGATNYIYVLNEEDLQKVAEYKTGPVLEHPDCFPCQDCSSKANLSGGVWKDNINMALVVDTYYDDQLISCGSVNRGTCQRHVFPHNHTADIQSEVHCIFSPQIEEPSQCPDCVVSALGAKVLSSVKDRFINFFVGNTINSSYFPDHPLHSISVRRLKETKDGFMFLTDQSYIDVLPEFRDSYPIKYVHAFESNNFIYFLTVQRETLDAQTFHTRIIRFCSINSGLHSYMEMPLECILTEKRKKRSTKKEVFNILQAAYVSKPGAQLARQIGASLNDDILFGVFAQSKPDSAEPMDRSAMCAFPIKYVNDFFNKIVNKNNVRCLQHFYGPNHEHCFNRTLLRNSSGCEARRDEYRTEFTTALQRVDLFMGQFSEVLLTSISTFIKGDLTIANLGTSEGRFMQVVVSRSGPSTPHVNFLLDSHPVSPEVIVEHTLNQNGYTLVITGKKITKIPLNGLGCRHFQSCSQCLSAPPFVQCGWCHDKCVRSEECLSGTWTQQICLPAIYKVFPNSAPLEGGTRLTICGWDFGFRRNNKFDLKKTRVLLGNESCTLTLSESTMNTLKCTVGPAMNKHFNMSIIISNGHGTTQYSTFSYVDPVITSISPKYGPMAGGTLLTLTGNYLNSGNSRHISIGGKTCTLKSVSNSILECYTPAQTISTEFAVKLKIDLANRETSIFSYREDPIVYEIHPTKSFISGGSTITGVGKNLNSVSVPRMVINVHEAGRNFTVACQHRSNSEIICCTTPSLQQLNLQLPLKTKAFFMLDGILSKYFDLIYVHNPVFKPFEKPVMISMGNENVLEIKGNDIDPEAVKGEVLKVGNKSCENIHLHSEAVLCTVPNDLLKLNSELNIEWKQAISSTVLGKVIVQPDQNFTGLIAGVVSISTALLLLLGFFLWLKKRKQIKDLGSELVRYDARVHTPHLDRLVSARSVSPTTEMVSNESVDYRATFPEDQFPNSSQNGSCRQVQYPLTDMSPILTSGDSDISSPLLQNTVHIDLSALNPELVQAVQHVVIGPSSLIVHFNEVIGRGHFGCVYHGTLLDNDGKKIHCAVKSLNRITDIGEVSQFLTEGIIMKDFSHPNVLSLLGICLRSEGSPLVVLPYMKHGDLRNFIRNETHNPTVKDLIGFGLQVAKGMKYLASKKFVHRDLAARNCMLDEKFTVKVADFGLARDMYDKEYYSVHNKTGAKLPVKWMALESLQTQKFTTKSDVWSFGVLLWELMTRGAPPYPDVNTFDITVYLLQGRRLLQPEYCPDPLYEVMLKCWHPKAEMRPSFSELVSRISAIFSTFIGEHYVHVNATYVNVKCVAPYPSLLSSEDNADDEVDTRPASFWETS", "assay": "Competition of unlabeled peptide for QQT*-Cy5.5 binding to HT29 cells", "settings": "unlabeled peptide 0, 25, 50, 100, 200 and 400 μM, then 5 μM Cy5.5-labeled peptide, 3 replicate slides, 5 cells per slide", "experimental": "Unlabeled peptides at 0, 25, 50, 100, 200 and 400 μM were first added and then incubated with 5 μM of Cy5.5-labeled peptides. […] The cells were fixed with 4% PFA, and mounted with ProLong Gold reagent containing DAPI."}, "[2]": {"tested_on": "mouse cMet-ECD", "assay": "Pull-down assay with mouse cMet-ECD", "assay_type": "binding", "settings": "peptide immobilized on EHS beads; Western blot; by comparison with TLQ*", "experimental": "Interactions between peptide and mouse cMet were evaluated using a pull-down assay. Peptides were immobilized on EHS active beads (17-0906-01, GE), and incubated with purified mouse cMet-ECD protein (50622-M08H, Sino Biological). After washing, bound proteins were detected by Western blot."}, "[3]": {"tested_on": "vascular endothelial growth factor A (VEGFA)", "settings": "IRDye800-labeled, intravenous, n = 17 FAP patients, cited from earlier work", "excerpt": "Large molecules, such as antibodies, that have high target affinity are also being utilized for CRC imaging. Bevacizumab is a monoclonal antibody that has been repurposed for imaging by labeling with IRDye800 to detect overexpressed vascular endothelial growth factor A (VEGFA)[46]. This imaging agent was intravenously administered in a total of n = 17 patients with familial adenomatous polyposis (FAP), and n = 51 adenomas were detected. A median T/B ratio = 1.84 was achieved using a dose of 25 mg. Small adenomas with dimensions< 3 mm were detected. Antibodies have long circulation times that l ..."}, "[4]": {"tested_on": "p-cMet", "assay": "Western blot of p-cMet in HT29 cells", "assay_type": "cell-based, human", "settings": "HT29, serum-starved; HGF 25 ng/mL or QQT*-Cy5.5 5 or 100 μM; 10, 30, 120 min", "experimental": "(§1) Peptides are added at concentrations of 5 and 100 μM for 10, 30, and 120 min. Anti-cMet antibody (#8198, Cell Signaling), phospho-cMet (Tyr1234/1235) antibody (#3077, Cell Signaling), anti-AKT (#4691, Cell Signaling), anti-phospho-AKT (#9271, Cell Signaling), anti-ERK1/2 (#ab17942, Abcam,), anti-phospho-ERK1/2 (#ab50011, Abcam), and anti-tubulin (#32-2600, Invitrogen) were used per manufacturer’s instructions."}, "[5]": {"tested_on": "p-AKT", "assay": "Western blot of p-AKT in HT29 cells", "assay_type": "cell-based, human", "settings": "HT29, serum-starved; HGF 25 ng/mL or QQT*-Cy5.5 5 or 100 μM; 10, 30, 120 min", "experimental": "as §1"}, "[6]": {"tested_on": "p-ERK1/2", "assay": "Western blot of p-ERK1/2 in HT29 cells", "assay_type": "cell-based, human", "settings": "HT29, serum-starved; HGF 25 ng/mL or QQT*-Cy5.5 5 or 100 μM; 10, 30, 120 min", "experimental": "as §1"}, "[7]": {"tested_on": "HT29 cells", "assay": "Alamar blue growth assay, HT29 cells", "assay_type": "cell-based, human", "settings": "48 hours, 37 °C; HGF 25 ng/mL or QQT*-Cy5.5 5 or 100 μM; 3 independent experiments", "experimental": "(§2) An alamar blue assay was performed using HT29 and CCD841 cells. After culturing in serum free media overnight, ~3 × 10^3 cells were seeded per well in serum free media in 96 well plates at a final volume of 100 µL per well. […] Alamar blue reagent (10 µL) was added in amounts equal to 10% of the volume in the well, and incubated at 37 °C for 4 hours. Fluorescence with excitation at λex = 530–560 nm, and emission at λex = 590 nm was measured."}, "[8]": {"tested_on": "CCD841 cells", "assay": "Alamar blue growth assay, CCD841 cells", "assay_type": "cell-based, human", "settings": "48 hours, 37 °C; HGF 25 ng/mL or QQT*-Cy5.5 5 or 100 μM; 3 independent experiments", "experimental": "as §2"}, "[9]": {"biological_target": "T1, cMet", "assay": "Confocal microscopy of binding to HT29 cells with siRNA knockdown of cMet", "experimental": "(§3) The cells were blocked with 1X PBS plus 2% BSA for 1 hour at 4 °C, and were incubated with 5 μM of peptide for 10 min at room temperature (RT) in the dark, washed 3×, and fixed with 4% PFA for 5 min, washed with 1X PBS, and then mounted on glass slides with ProLong Gold reagent containing DAPI (Invitrogen). A 1:3000 dilution of primary monoclonal rabbit anti-cMet antibody (#8198, Cell Signaling Technology) was incubated with the cells in vitro as a positive control. Afterwards, the cells were incubated with a 1:500 dilution of AF488-labeled secondary goat ant-rabbit immunoglobulin G antibody (#A-11029, Life Technologies), and then mounted on glass slides with ProLong Gold reagent containing DAPI. Confocal fluorescence images were collected using a 63X oil-immersion objective (Leica SP5 Inverted 2-Photon FLIM confocal). Fluorescence intensities were quantified using custom Matlab software (Mathworks).\nExpression of cMet by HT29 cells was knocked down using siRNA (siRNA1, SASI_Hs01_00133002, Sigma). MISSION® siRNA Universal Negative Control (SIC001, Sigma) was used for control. Cells were transfected with Lipofectamine 2000 (11668027, Invitrogen) per manufacturer instructions, and incubated with 5 μM of peptide for 5 min. A 1:3000 dilution of primary monoclonal rabbit anti-cMet antibody (Cell Signaling Technology, #8198) was used for positive control."}, "[10]": {"biological_target": "T1, cMet", "assay": "Confocal microscopy of binding to HT29 (cMet+) versus SW480 (cMet-) CRC cells", "experimental": "as §3"}, "[11]": {"tested_on": "cMet", "assay": "Confocal microscopy of binding to S114 (cMet+) versus NIH3T3 (cMet-) cells", "design": "species or system mouse", "experimental": "Human HT29, SW480, CCD841 colorectal cancer cells and mouse NIH 3T3 embryonic fibroblast cells were obtained from the ATCC. S114 cells (NIH 3T3 cells transformed to express cMet) were provided by courtesy of G Vande Woude (Van Andel Institute). McCoy’s 5A Medium (Gibco) was used for HT29 cells. Dulbecco’s Modified Eagle Medium (Gibco) were used for SW480, NIH3T3, and S114 cells. Eagle’s Minimum Essential Medium (Lonza) was used for CCD841. All cells were cultured at 37 °C in 5% CO2, and supplemented with 10% fetal bovine serum. Reagents for peptide synthesis were obtained from Anaspec (Anaspec) and AAPPTEC (AAPPTEC) at the highest available grade (>99% purity), and were used without further purification. Solvents and other chemical reagents were purchased (Sigma-Aldrich) unless stated otherwise.\nas §3"}, "[12]": {"tested_on": "cMet", "assay": "In vivo fluorescence endoscopy of colonic adenomas in CPC;Apc mice", "design": "species or system mouse", "settings": "intra-rectal 100 μM, 1.5 mL, control peptide 3 days later", "experimental": "CPC;Apc mice were used for in vivo imaging. This mouse was genetically engineered to sporadically delete an adenomatous polyposis coli (APC) allele under control of a Cdx2 promoter (CDX2P-9.5NLS-Cre) to spontaneously form either flat or polypoid adenomas in the distal colon. Prior to imaging, the mice were fasted for 4–6 hours. Anesthesia was induced and maintained via a nose cone with inhaled isoflurane mixed with oxygen at concentrations of 2–4% at a flow rate of 0.5 L/min. A rigid small animal endoscope (Karl Storz Veterinary Endoscopy) was inserted into the rectum. White-light illumination was used first to identify the presence of adenomas. Peptides (100 μM, 1.5 mL) were delivered intra-rectally through the instrument channel. After 5 min for incubation, the colon was rinsed with warm tap water 3X to remove stool and debris prior to image collection. After 3 days for the signal from the target peptide to clear, the same mice were imaged using the control peptide. A ratio of the fluorescence and reflectance images was determined to correct for differences in distance and geometry over the image field-of-view (FOV)[33]. […] The mean fluorescence intensity was used to calculate the target-to-background (T/B) ratios. Images were processed and analyzed using custom software in Matlab (Mathworks)[34]."}, "[13]": {"biological_target": "T2, cMet on human HT29 CRC cells (human (endogenous in HT29), UniProt P08581 25-1390)", "T2 construct": "cMet, transmembrane tyrosine kinase receptor (hepatocyte growth factor receptor), human; Alpha and beta chains are cut from one precursor; written as one chain; also called HT29 cells (cMet+); source: endogenous, on HT29 cells", "T2 sequence (P08581 25-1390)": "as above", "assay": "flow cytometry on cells; HT29 cells incubated with peptide at 0-200 nM for 1 hour at 4 °C; apparent dissociation constant by nonlinear regression", "settings": "one partner purified"}, "[14]": {"biological_target": "T2, cMet on human HT29 CRC cells", "assay": "immunostaining of cells or tissue; confocal fluorescence microscopy of cells incubated with 5 μM Cy5.5-labeled peptide (5-10 min, RT), washed, fixed with 4% PFA; HT29 transfected with siCL or sicMet; HT29 versus SW480; S114 versus NIH3T3", "settings": "one partner purified"}, "[15]": {"settings": "6 replicate slides per condition, 10 cells per slide"}}, "note": "Where a SMILES comes first, the peptide text is derived from it. Where no end group is shown, it is not given here. The star is where a group is joined. X1 = CN1/C(=C/C=C/C=C/C2=[N+](CCCCCC(=O)*)c3ccc4ccccc4c3C2(C)C)C(C)(C)c2c1ccc1ccccc21"}
{"molecule": "QQTNWSL [QQT*]", "values": [{"measurement": "Competition: fluorescence intensity of QQT*-Cy5.5 binding with increasing unlabeled peptide", "setting": "[1]", "result": "decreased significantly"}, {"measurement": "Pull-down band for binding to mouse cMet-ECD", "setting": "[2]", "result": "strong band"}]}
{"molecule": "Bevacizumab: monoclonal antibody repurposed for imaging by labeling with IRDye800 to detect overexpressed VEGFA", "values": [{"measurement": "Median T/B ratio", "setting": "[3]; 25 mg", "result": 1.84}, {"measurement": "Dimensions of small adenomas detected", "setting": "[3]", "result": "< 3", "unit": "mm"}, {"measurement": "Number of adenomas detected", "setting": "[3]", "result": 51}]}
{"molecule": "HGF: recombinant human hepatocyte growth factor (HGF, 294-HG-005, R&D), a known ligand for cMet", "values": [{"measurement": "Phosphorylation of cMet (p-cMet)", "setting": "[4]", "result": "strong phosphorylation activity"}, {"measurement": "Phosphorylation of downstream AKT (p-AKT)", "setting": "[5]", "result": "strong phosphorylation activity"}, {"measurement": "Phosphorylation of downstream ERK1/2 (p-ERK1/2)", "setting": "[6]", "result": "strong phosphorylation activity"}, {"measurement": "Growth of HT29 cells", "setting": "[7]", "result": "increased growth"}, {"measurement": "Growth of CCD841 normal colon cells", "setting": "[8]", "result": "not (C) CCD841 cells"}]}
{"molecule": "TLQWNQS [TLQ*, unlabeled control peptide TLQ*]", "values": [{"measurement": "Competition: fluorescence intensity of QQT*-Cy5.5 binding with increasing unlabeled peptide", "setting": "[1]", "result": "not with TLQ*"}]}
{"molecule": "CC(C)C[C@H](NC(=O)[C@H](CO)NC(=O)[C@H](Cc1c[nH]c2ccccc12)NC(=O)[C@H](CC(N)=O)NC(=O)[C@@H](NC(=O)[C@H](CCC(N)=O)NC(=O)[C@@H](N)CCC(N)=O)[C@@H](C)O)C(=O)NCC(=O)NCC(=O)NCC(=O)N[C@@H](CO)C(=O)N[C@@H](CCCCNC(=O)CCCCC[N+]1=C(/C=C/C=C/C=C2/N(C)c3ccc4ccccc4c3C2(C)C)C(C)(C)c2c1ccc1ccccc21)C(N)=O", "note": "[QQT*-Cy5.5] (H-QQTNWSLGGGSK(X1)-NH2)", "values": [{"measurement": "Growth of CCD841 normal colon cells", "setting": "[8]", "result": "no effect on growth"}]}
{"molecule": "TLQWNQS [TLQ*-Cy5.5]", "values": [{"measurement": "Change in fluorescence intensity, siCL versus sicMet (in words)", "setting": "[9]; HT29, ANOVA on log-transformed data, 6 replicate slides per condition", "result": "non-significant decrease"}, {"measurement": "Binding to surface of HT29 cells transfected with siCL (control)", "setting": "[9]; HT29 siCL, peptide 5 μM, antibody 1:3000, confocal fluorescence", "result": "minimal binding"}, {"measurement": "Binding to HT29 cells transfected with sicMet (cMet knockdown)", "setting": "[9]; HT29 sicMet, peptide 5 μM, 5 min, antibody 1:3000, confocal fluorescence", "result": "little binding"}, {"measurement": "Change in mean intensity, HT29 versus SW480 (in words)", "setting": "[10]; [15]", "result": "non-significant decrease"}, {"measurement": "Binding to surface of HT29 cells (cMet+)", "setting": "[10]; HT29, confocal, peptide 5 μM 10 min RT, antibody 1:3000", "result": "minimal binding"}, {"measurement": "Binding to SW480 cells (cMet-)", "setting": "[10]; SW480, confocal, peptide 5 μM 10 min RT, antibody 1:3000", "result": "minimal binding"}, {"measurement": "Change in mean intensity, S114 versus NIH3T3 (in words)", "setting": "[11]; [15]", "result": "non-significant increase"}, {"measurement": "Binding to NIH3T3 cells (cMet-)", "setting": "[11]; NIH3T3, confocal, peptide 5 μM 10 min RT, antibody 1:3000", "result": "nominal binding"}, {"measurement": "Binding to surface of S114 cells (cMet+)", "setting": "[11]; S114, confocal, peptide 5 μM 10 min RT, antibody 1:3000", "result": "minimal binding"}, {"measurement": "Fluorescence from representative polyp", "setting": "[12]", "result": "minimal signal"}, {"measurement": "Fluorescence from representative flat lesion", "setting": "[12]; same lesion", "result": "minimal signal"}]}
{"molecule": "B1", "values": [{"measurement": "Kd", "setting": "[13]", "result": 57, "unit": "nM"}, {"measurement": "fold change of fluorescence intensity against TLQ*-Cy5.5", "setting": "[14]", "result": 8.1, "unit": "fold"}, {"measurement": "fold change of fluorescence intensity, siCL versus sicMet transfected cells", "setting": "[14]", "result": 2.9, "unit": "fold"}]}
